Reference: BindingDB's records for doi:10.1021/acs.jnatprod.6b01127 (Beijing University of Chinese Medicine, 2017)
pIC50: −log10 of the molar value.

Target: Signal transducer and activator of transcription 3 (Homo sapiens, UniProt P40763)
Assay: Inhibition of IL-6-Induced STAT3 activation (unknown origin) expressed in human HepG2 cells expressing pSTAT3-luciferase pre-incubated for 1 hr before IL-6 stimulation for 6 hrs by luciferase reporter gene assay

Sequence of Signal transducer and activator of transcription 3 (P40763 whole entry): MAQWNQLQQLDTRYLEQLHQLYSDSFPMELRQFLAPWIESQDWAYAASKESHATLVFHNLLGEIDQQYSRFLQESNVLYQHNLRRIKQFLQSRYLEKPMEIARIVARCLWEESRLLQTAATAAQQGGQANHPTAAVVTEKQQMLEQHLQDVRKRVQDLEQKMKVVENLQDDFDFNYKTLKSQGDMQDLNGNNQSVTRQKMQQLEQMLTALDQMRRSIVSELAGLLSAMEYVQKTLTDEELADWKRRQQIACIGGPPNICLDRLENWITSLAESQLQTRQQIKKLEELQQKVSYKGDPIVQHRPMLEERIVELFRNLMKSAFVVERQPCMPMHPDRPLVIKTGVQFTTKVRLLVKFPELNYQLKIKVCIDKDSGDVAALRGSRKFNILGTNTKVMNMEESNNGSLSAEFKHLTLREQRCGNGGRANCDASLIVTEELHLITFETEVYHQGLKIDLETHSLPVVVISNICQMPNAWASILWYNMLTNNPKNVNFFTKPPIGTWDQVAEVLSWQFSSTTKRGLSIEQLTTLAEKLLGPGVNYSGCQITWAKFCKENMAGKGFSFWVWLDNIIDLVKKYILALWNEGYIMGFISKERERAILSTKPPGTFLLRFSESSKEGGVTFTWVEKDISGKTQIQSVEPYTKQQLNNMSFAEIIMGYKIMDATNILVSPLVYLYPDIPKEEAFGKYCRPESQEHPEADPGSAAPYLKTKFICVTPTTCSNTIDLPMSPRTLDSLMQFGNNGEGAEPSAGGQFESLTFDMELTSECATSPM

Row | Structure (SMILES) | pIC50
1 | COC(=O)C1=CO[C@@H](O[C@@H]2O[C@H](CO)[C@@H](O)[C@H](O)[C@H]2O)[C@@H]2[C@H](C)O[C@H](O[C@H]3[C@H](O[C@@H]4OC=C(C(=O)OC)[C@H]5C[C@@H](OC)O[C@@H](C)[C@@H]45)O[C@H](CO)[C@@H](O)[C@@H]3O)C[C@H]12 | 4.71
2 | CCO[C@H]1C[C@@H]2C(C(=O)OC)=CO[C@@H](O[C@@H]3O[C@H](CO[C@H]4C[C@@H]5C(C(=O)OC)=CO[C@@H](O[C@@H]6O[C@H](CO)[C@@H](O)[C@H](O)[C@H]6O)[C@@H]5[C@H](C)O4)[C@@H](O)[C@H](O)[C@H]3O)[C@@H]2[C@H](C)O1 | < 4.00
3 | COC(=O)C1=CO[C@@H](O[C@@H]2O[C@H](CO)[C@@H](O)[C@H](O)[C@H]2O[C@@H]2C[C@@H]3C(C(=O)OC)=CO[C@@H](O[C@@H]4O[C@H](CO)[C@@H](O)[C@H](O)[C@H]4O)[C@@H]3[C@H](C)O2)[C@@H]2[C@@H](C)[C@@H](O)C[C@H]12 | 4.39
4 | COC(=O)C1=CO[C@@H](O[C@@H]2O[C@H](CO[C@@H]3C[C@@H]4C(C(=O)OC)=CO[C@@H](O[C@@H]5O[C@H](CO)[C@@H](O)[C@H](O)[C@H]5O)[C@@H]4[C@H](C)O3)[C@@H](O)[C@H](O)[C@H]2O)[C@@H]2[C@H](C)O[C@H](OC)C[C@H]12 | 4.56
5 | COC(=O)C1=CO[C@@H](O[C@@H]2O[C@H](CO[C@H]3C[C@@H]4C(C(=O)OC)=CO[C@@H](O[C@@H]5O[C@H](CO)[C@@H](O)[C@H](O)[C@H]5O)[C@@H]4[C@H](C)O3)[C@@H](O)[C@H](O)[C@H]2O)[C@@H]2[C@H](C)O[C@@H](OC)C[C@H]12 | < 4.00
6 | COC(=O)C1=CO[C@@H](O[C@@H]2O[C@H](CO)[C@@H](O)[C@H](O)[C@H]2O)[C@@H]2[C@H](C)O[C@@H](OC)C[C@H]12 | 4.61
7 | COC(=O)C1=CO[C@@H](O[C@@H]2O[C@H](CO)[C@@H](O)[C@H](O)[C@H]2O)[C@@H]2[C@H](C)O[C@H](OC)C[C@H]12 | 4.49
8 | COC(=O)C1=CO[C@@H](O[C@@H]2O[C@H](CO)[C@@H](O)[C@H](O)[C@H]2O)[C@@H]2[C@@H](C)[C@@H](O[C@H]3C[C@@H]4C(C(=O)OC)=CO[C@@H](O[C@@H]5O[C@H](CO)[C@@H](O)[C@H](O)[C@H]5O)[C@@H]4[C@@H](C)O3)C[C@H]12 | 4.14
9 | COC(=O)C1=CO[C@@H](O[C@@H]2O[C@H](CO)[C@@H](O[C@H]3C[C@@H]4C(C(=O)OC)=CO[C@@H](O[C@@H]5O[C@H](C)[C@@H](O)[C@H](O)[C@H]5O)[C@@H]4[C@H](C)O3)[C@H](O)[C@H]2O)[C@@H]2[C@@H](C)[C@@H](O)C[C@H]12 | 4.28
10 | COC(=O)C1=CO[C@@H](O[C@@H]2O[C@H](CO[C@@H]3C[C@@H]4C(C(=O)OC)=CO[C@@H](O[C@@H]5O[C@H](CO)[C@@H](O)[C@H](O)[C@H]5O)[C@@H]4[C@H](C)O3)[C@@H](O)[C@H](O)[C@H]2O)[C@@H]2[C@@H](C)[C@@H](O)C[C@H]12 | 4.91
11 | COC(=O)C1=CO[C@@H](O[C@@H]2O[C@H](CO[C@@H]3C[C@@H]4C(C(=O)OC)=CO[C@@H](O[C@@H]5O[C@H](CO)[C@@H](O)[C@H](O)[C@H]5O)[C@@H]4[C@H](C)O3)[C@@H](O)[C@H](O)[C@H]2O)[C@@H]2[C@H](C)O[C@@H](OC)C[C@H]12 | 4.37
12 | COC(=O)C1=CO[C@@H](O[C@@H]2O[C@H](CO)[C@@H](O)[C@H](O)[C@H]2O)[C@@H]2[C@H](C)O[C@H](O[C@H]3[C@H](O[C@@H]4OC=C(C(=O)OC)[C@H]5C[C@H](OC)O[C@@H](C)[C@@H]45)O[C@H](CO)[C@@H](O)[C@@H]3O)C[C@H]12 | 4.66
13 | COC(=O)C1=CO[C@@H](O[C@@H]2O[C@H](C)[C@@H](O)[C@H](O)[C@H]2O)[C@@H]2[C@H](C)O[C@@H](O[C@@H]3[C@@H](O)[C@H](O[C@@H]4OC=C(C(=O)OC)[C@H]5C[C@@H](OC)O[C@@H](C)[C@@H]45)O[C@H](CO)[C@H]3O)C[C@H]12 | 4.53
14 | COC(=O)C1=CO[C@@H](O[C@@H]2O[C@H](C)[C@@H](O)[C@H](O)[C@H]2O)[C@@H]2[C@H](C)O[C@@H](O[C@@H]3[C@@H](O)[C@H](O[C@@H]4OC=C(C(=O)OC)[C@H]5C[C@H](OC)O[C@@H](C)[C@@H]45)O[C@H](CO)[C@H]3O)C[C@H]12 | 4.92
15 | COC(=O)C1=CO[C@@H](O[C@@H]2O[C@H](CO)[C@@H](O)[C@H](O)[C@H]2O)[C@@H]2[C@H](C)O[C@@H](O[C@H]3[C@H](O[C@@H]4OC=C(C(=O)OC)[C@H]5C[C@H](OC)O[C@@H](C)[C@@H]45)O[C@H](CO)[C@@H](O)[C@@H]3O)C[C@H]12 | < 4.00
16 | CCO[C@H]1C[C@@H]2C(C(=O)OC)=CO[C@@H](O[C@@H]3O[C@H](CO)[C@@H](O)[C@H](O)[C@H]3O)[C@@H]2[C@H](C)O1 | 4.17
17 | CCO[C@@H]1C[C@@H]2C(C(=O)OC)=CO[C@@H](O[C@@H]3O[C@H](CO[C@H]4C[C@@H]5C(C(=O)OC)=CO[C@@H](O[C@@H]6O[C@H](CO)[C@@H](O)[C@H](O)[C@H]6O)[C@@H]5[C@H](C)O4)[C@@H](O)[C@H](O)[C@H]3O)[C@@H]2[C@H](C)O1 | < 4.00
18 | COC(=O)C1=CO[C@@H](O[C@@H]2O[C@H](C)[C@@H](O)[C@H](O)[C@H]2O)[C@@H]2[C@H](C)O[C@@H](O[C@H]3[C@H](O)[C@@H](O)[C@H](O[C@@H]4OC=C(C(=O)OC)[C@H]5C[C@H](OC)O[C@@H](C)[C@@H]45)O[C@@H]3CO)C[C@H]12 | 4.10
19 | CCO[C@@H]1C[C@@H]2C(C(=O)OC)=CO[C@@H](O[C@@H]3O[C@H](CO)[C@@H](O)[C@H](O)[C@H]3O)[C@@H]2[C@H](C)O1 | < 4.00
20 | COC(=O)C1=CO[C@@H](O[C@@H]2O[C@H](CO)[C@@H](O)[C@H](O)[C@H]2O)[C@@H]2[C@H](C)O[C@@H](OC[C@H]3O[C@@H](O[C@@H]4OC=C(C(=O)OC)[C@H]5C[C@@H](OC)O[C@@H](C)[C@@H]45)[C@H](O)[C@@H](O)[C@@H]3O)C[C@H]12 | 4.33
21 | COC(=O)C1=CO[C@@H](O[C@@H]2O[C@H](CO)[C@@H](O)[C@H](O)[C@H]2O)[C@@H]2[C@H](C)[C@@H](O)C[C@H]12 [7-Epi-Loganin] | 4.64
22 | COC(=O)C1=CO[C@@H](O[C@@H]2O[C@H](CO)[C@@H](O)[C@H](O)[C@H]2O)[C@@H]2[C@H](C)O[C@H](O)C[C@H]12 [(7Alpha-Hydroxy)-Morroniside] | 5.15
23 | COC(=O)C1=CO[C@@H](O[C@@H]2O[C@H](CO)[C@@H](O)[C@H](O)[C@H]2O)[C@@H]2[C@H](C)O[C@@H](O)C[C@H]12 [CHEBI:80852] | 5.16
24 | C=C[C@H]1[C@H](O[C@@H]2O[C@H](CO)[C@@H](O)[C@H](O)[C@H]2O)OC=C2C(=O)OCC[C@H]21 [CHEBI:80907] | 4.05
25 | COC(=O)C1=CO[C@@H](O[C@@H]2O[C@H](CO)[C@@H](O)[C@H](O)[C@H]2O)[C@@H]2[C@@H](C)[C@@H](O)C[C@H]12 [Loganin] | 4.85
26 | O=c1c(-c2ccc(O)cc2)coc2cc(O)cc(O)c12 [Prunetol] | 4.61
